# According to PubChem BioAssay AID226 (DTP/NCI, 2004):
# Values joined by “and” are separate entries in the source; they are usually repeats but may differ in a detail not shown here. Identical values can stand only once. Inconclusive results and toxic doses are left out.
# Test system: B6C3F1 mice, intracerebral ependymoblastoma, median survival T/C
# Experiment: NCI In Vivo Anticancer Drug Screen. Data for tumor model Ependymoblastoma (intracerebral) in B6C3F1 mice
# Conditions: endpoint: median survival time, higher = longer survival
# Procedure: The antitumor activity of compounds was measured in mice bearing transplantable tumors. Survival or tumor size were measured and the results are expressed as the measurement made in the treated group (T) divided by the measurement made in the vehicle treated control group (C). The tumor model used in this assay is Ependymoblastoma (intracerebral) in B6C3F1 mice
# [1] = dose: 2.0 mg/kg/injection, schedule: Q01DX005 (ip), vehicle: saline with Tween-80
# [2] = dose: 4.0 mg/kg/injection, schedule: Q01DX005 (ip), vehicle: saline with Tween-80
# [3] = dose: 8.0 mg/kg/injection, schedule: Q01DX005 (ip), vehicle: saline with Tween-80
# [4] = dose: 16.0 mg/kg/injection, schedule: Q01DX005 (ip), vehicle: saline with Tween-80
# [5] = dose: 32.0 mg/kg/injection, schedule: Q01DX005 (ip), vehicle: saline with Tween-80
# [6] = dose: 32.0 mg/kg/injection, schedule: Q01DX005 (ip), vehicle: saline
# [7] = dose: 64.0 mg/kg/injection, schedule: Q01DX005 (ip), vehicle: saline
# [8] = dose: 64.0 mg/kg/injection, schedule: Q01DX005 (ip), vehicle: saline with Tween-80
# [9] = dose: 64.0 mg/kg/injection, schedule: Q01DX005 (ip), vehicle: Klucel (hydroxypropylcellulose) (HPC)
# [10] = dose: 128.0 mg/kg/injection, schedule: Q01DX005 (ip), vehicle: Klucel (hydroxypropylcellulose) (HPC)
# [11] = dose: 256.0 mg/kg/injection, schedule: Q01DX005 (ip), vehicle: Klucel (hydroxypropylcellulose) (HPC)
smiles,measurement,setting,value
CCCC(=O)OCC1OC(n2cnc3c(=S)nc(N)[nH]c32)C(OC(=O)CCC)C1OC(=O)CCC (stereo not drawn),T/C,"dose: 3.12 mg/kg/injection, schedule: Q01DX005 (ip), vehicle: Klucel (hydroxypropylcellulose) (HPC)",102 % of control and 113 % of control
same,T/C,"dose: 6.25 mg/kg/injection, schedule: Q01DX005 (ip), vehicle: Klucel (hydroxypropylcellulose) (HPC)",98 % of control and 104 % of control
same,T/C,"dose: 12.5 mg/kg/injection, schedule: Q01DX005 (ip), vehicle: Klucel (hydroxypropylcellulose) (HPC)",106 % of control
O=C1c2c(O)ccc(O)c2C(=O)c2c(NCCNCCO)ccc(NCCNCCO)c21,T/C,"dose: 0.25 mg/kg/injection, schedule: Q01DX005 (ip), vehicle: saline with Tween-80",103 % of control
same,T/C,"dose: 0.5 mg/kg/injection, schedule: Q01DX005 (ip), vehicle: saline with Tween-80",92 % of control and 98 % of control
same,T/C,"dose: 1.0 mg/kg/injection, schedule: Q01DX005 (ip), vehicle: saline with Tween-80",103 % of control and 104 % of control
same,T/C,[1],91 % of control and 103 % of control
C1CN1c1nc(N2CC2)nc(N2CC2)n1,T/C,"dose: 0.06 mg/kg/injection, schedule: Q01DX005 (ip), vehicle: saline",110 % of control
same,T/C,"dose: 0.13 mg/kg/injection, schedule: Q01DX005 (ip), vehicle: saline",106 % of control and 119 % of control
same,T/C,"dose: 0.25 mg/kg/injection, schedule: Q01DX005 (ip), vehicle: saline",115 % of control and 124 % of control
same,T/C,"dose: 1.0 mg/kg/injection, schedule: Q01DX005 (ip), vehicle: saline",189 % of control and 238 % of control
O=NN(CCF)C(=O)NC1CCC(=O)NC1=O (stereo not drawn),T/C,"dose: 5.18 mg/kg/injection, schedule: Q01DX005 (ip), vehicle: Klucel (hydroxypropylcellulose) (HPC)",186 % of control
same,T/C,"dose: 8.64 mg/kg/injection, schedule: Q01DX005 (ip), vehicle: Klucel (hydroxypropylcellulose) (HPC)",232 % of control
same,T/C,"dose: 14.4 mg/kg/injection, schedule: Q01DX005 (ip), vehicle: Klucel (hydroxypropylcellulose) (HPC)",357 % of control
same,T/C,"dose: 24.0 mg/kg/injection, schedule: Q01DX005 (ip), vehicle: Klucel (hydroxypropylcellulose) (HPC)",357 % of control
Nc1ccc(S(N)(=O)=O)cc1,T/C,"dose: 25.0 mg/kg/injection, schedule: Q01DX005 (ip), vehicle: saline with Tween-80",98 % of control
same,T/C,"dose: 50.0 mg/kg/injection, schedule: Q01DX005 (ip), vehicle: saline with Tween-80",96 % of control and 103 % of control
same,T/C,"dose: 100.0 mg/kg/injection, schedule: Q01DX005 (ip), vehicle: saline with Tween-80",101 % of control and 103 % of control
same,T/C,"dose: 200.0 mg/kg/injection, schedule: Q01DX005 (ip), vehicle: saline with Tween-80",92 % of control and 102 % of control
same,T/C,"dose: 400.0 mg/kg/injection, schedule: Q01DX005 (ip), vehicle: saline with Tween-80",101 % of control and 107 % of control
same,T/C,"dose: 800.0 mg/kg/injection, schedule: Q01DX005 (ip), vehicle: saline with Tween-80",95 % of control
O=C1c2ccccc2C(=O)c2c(NCCNCCO)ccc(NCCNCCO)c21,T/C,"dose: 1.0 mg/kg/injection, schedule: Q04DX003 (ip), vehicle: Klucel (hydroxypropylcellulose) (HPC)",107 % of control
same,T/C,"dose: 1.0 mg/kg/injection, schedule: Q04DX003 (ip), vehicle: water",102 % of control
same,T/C,[1],102 % of control [middle of 4 runs]
same,T/C,"dose: 2.0 mg/kg/injection, schedule: Q04DX003 (ip), vehicle: Klucel (hydroxypropylcellulose) (HPC)",97 % of control
same,T/C,"dose: 2.0 mg/kg/injection, schedule: Q04DX003 (ip), vehicle: water",101 % of control
same,T/C,[2],101 % of control [middle of 4 runs]
same,T/C,"dose: 4.0 mg/kg/injection, schedule: Q04DX003 (ip), vehicle: Klucel (hydroxypropylcellulose) (HPC)",101 % of control
same,T/C,"dose: 4.0 mg/kg/injection, schedule: Q04DX003 (ip), vehicle: water",92 % of control
same,T/C,[3],109 % of control [middle of 4 runs]
same,T/C,"dose: 8.0 mg/kg/injection, schedule: Q04DX003 (ip), vehicle: Klucel (hydroxypropylcellulose) (HPC)",110 % of control
same,T/C,"dose: 8.0 mg/kg/injection, schedule: Q04DX003 (ip), vehicle: water",102 % of control
same,T/C,[4],113 % of control [middle of 4 runs]
same,T/C,"dose: 16.0 mg/kg/injection, schedule: Q04DX003 (ip), vehicle: Klucel (hydroxypropylcellulose) (HPC)",108 % of control
same,T/C,"dose: 16.0 mg/kg/injection, schedule: Q04DX003 (ip), vehicle: water",92 % of control
same,T/C,[5],94 % of control and 110 % of control and 116 % of control
same,T/C,"dose: 32.0 mg/kg/injection, schedule: Q04DX003 (ip), vehicle: Klucel (hydroxypropylcellulose) (HPC)",108 % of control
same,T/C,"dose: 32.0 mg/kg/injection, schedule: Q04DX003 (ip), vehicle: water",94 % of control
same,T/C,"dose: 64.0 mg/kg/injection, schedule: Q04DX003 (ip), vehicle: Klucel (hydroxypropylcellulose) (HPC)",97 % of control
same,T/C,"dose: 128.0 mg/kg/injection, schedule: Q04DX003 (ip), vehicle: Klucel (hydroxypropylcellulose) (HPC)",92 % of control
F,T/C,"dose: 16.0 mg/kg/injection, schedule: Q01DX005 (ip), vehicle: saline",112 % of control
same,T/C,[6],107 % of control
same,T/C,[7],105 % of control
Nc1nc(=S)c2ncn(C3OC(COC(=O)c4ccc(Cl)cc4)C(OC(=O)c4ccc(Cl)cc4)C3OC(=O)c3ccc(Cl)cc3)c2[nH]1 (stereo not drawn),T/C,"dose: 18.75 mg/kg/injection, schedule: Q01DX005 (ip), vehicle: Klucel (hydroxypropylcellulose) (HPC)",101 % of control
same,T/C,"dose: 37.5 mg/kg/injection, schedule: Q01DX005 (ip), vehicle: Klucel (hydroxypropylcellulose) (HPC)",102 % of control
same,T/C,"dose: 75.0 mg/kg/injection, schedule: Q01DX005 (ip), vehicle: Klucel (hydroxypropylcellulose) (HPC)",98 % of control and 115 % of control
CCOC(=O)CC(SP(=S)(OC)OC)C(=O)OCC (stereo not drawn),T/C,"dose: 25.0 mg/kg/injection, schedule: Q01DX005 (ip), vehicle: suspension in saline",100 % of control
same,T/C,"dose: 50.0 mg/kg/injection, schedule: Q01DX005 (ip), vehicle: suspension in saline",124 % of control
same,T/C,"dose: 100.0 mg/kg/injection, schedule: Q01DX005 (ip), vehicle: suspension in saline",101 % of control
same,T/C,"dose: 200.0 mg/kg/injection, schedule: Q01DX005 (ip), vehicle: suspension in saline",105 % of control
CC(C)NCC(O)COc1cccc2ccccc12 (stereo not drawn),T/C,[2],107 % of control
same,T/C,"dose: 4.0 mg/kg/injection, schedule: Q01DX009 (ip), vehicle: saline with Tween-80",107 % of control
same,T/C,[3],101 % of control
same,T/C,"dose: 8.0 mg/kg/injection, schedule: Q01DX009 (ip), vehicle: saline with Tween-80",101 % of control
same,T/C,[4],112 % of control
same,T/C,"dose: 16.0 mg/kg/injection, schedule: Q01DX009 (ip), vehicle: saline with Tween-80",115 % of control
same,T/C,[5],107 % of control
same,T/C,"dose: 32.0 mg/kg/injection, schedule: Q01DX009 (ip), vehicle: saline with Tween-80",105 % of control
same,T/C,[8],107 % of control
same,T/C,"dose: 64.0 mg/kg/injection, schedule: Q01DX009 (ip), vehicle: saline with Tween-80",107 % of control
O=[N+]([O-])O.[Ga],T/C,[6],107 % of control
same,T/C,[7],100 % of control
same,T/C,"dose: 128.0 mg/kg/injection, schedule: Q01DX005 (ip), vehicle: saline",105 % of control
NC(CSC(c1ccccc1)(c1ccccc1)c1ccccc1)C(=O)O (stereo not drawn),T/C,"dose: 32.0 mg/kg/injection, schedule: Q01DX005 (ip), vehicle: Klucel (hydroxypropylcellulose) (HPC)",107 % of control
same,T/C,[9],107 % of control
same,T/C,"dose: 512.0 mg/kg/injection, schedule: Q01DX001 (ip), vehicle: Klucel (hydroxypropylcellulose) (HPC)",108 % of control
same,T/C,"dose: 516.0 mg/kg/injection, schedule: Q01DX001 (ip), vehicle: Klucel (hydroxypropylcellulose) (HPC)",86 % of control
CC[C@H]1CN2CCc3cc(OC)c(OC)cc3[C@@H]2C[C@@H]1C[C@H]1NCCc2cc(OC)c(OC)cc21,T/C,"dose: 2.0 mg/kg/injection, schedule: Q01DX005 (ip), vehicle: Klucel (hydroxypropylcellulose) (HPC)",100 % of control and 104 % of control
same,T/C,"dose: 4.0 mg/kg/injection, schedule: Q01DX005 (ip), vehicle: Klucel (hydroxypropylcellulose) (HPC)",99 % of control and 105 % of control
same,T/C,"dose: 8.0 mg/kg/injection, schedule: Q01DX005 (ip), vehicle: Klucel (hydroxypropylcellulose) (HPC)",105 % of control and 117 % of control
Nc1ncnc2nc[nH]c12,T/C,[2],106 % of control and 113 % of control
same,T/C,[3],100 % of control and 114 % of control
same,T/C,[4],107 % of control and 118 % of control
same,T/C,[5],101 % of control and 102 % of control
same,T/C,[9],108 % of control
same,T/C,[8],100 % of control and 117 % of control
same,T/C,[10],107 % of control
same,T/C,[11],96 % of control
O=P1(N(CCCl)CCCl)NC(OO)CCO1 (stereo not drawn),T/C,"dose: 40.0 mg/kg/injection, schedule: Q01DX001 (ip), vehicle: saline",102 % of control
same,T/C,"dose: 80.0 mg/kg/injection, schedule: Q01DX001 (ip), vehicle: saline",108 % of control
same,T/C,"dose: 160.0 mg/kg/injection, schedule: Q01DX001 (ip), vehicle: saline",113 % of control
Cc1ncc(CO)c(C)c1O,T/C,[10],102 % of control and 108 % of control
same,T/C,[11],101 % of control and 105 % of control
